Assay [1] deals with Plasmodium falciparum. The experiment in a line: Antiplasmodial activity against chloroquine-resistant Plasmodium falciparum Dd2 infected in human erythrocytes incubated for 72 hrs by SYBR green staining based fluorescence assay. In kind it is functional, organism-based. As to conditions: Dd2, 72 h.
Assay [2] deals with Plasmodium falciparum. Kind of assay: Antiplasmodial activity against chloroquine-resistant Plasmodium falciparum K1 infected in human erythrocytes incubated for 72 hrs by SYBR green staining based fluorescence assay. In kind it is functional, organism-based. Particulars: K1, 72 h.
The subject of assay [3] is Escherichia coli. Kind of assay: Antibacterial activity against Escherichia coli. In kind it is functional.
For the next assay, the system named is MCF7. The experiment in a line: Cytotoxicity against human MCF7 by microculture tetrazolium assay. In kind it is functional, cell-based.
The test system of the next assay is Human betaherpesvirus 5. The experiment in a line: Antiviral activity against GFP-transfected Human cytomegalovirus AD169 infected in human HFF cells measured after 7 days by GFP fluorometry. In kind it is functional, cell-based. As to conditions: Human betaherpesvirus 5, AD169, HFF, 168 h.
The subject of assay [4] is Pseudomonas aeruginosa. Kind of assay: Antibacterial activity against Pseudomonas aeruginosa ATCC 27853 incubated for 24 hrs by CLSI-based macrobroth dilution method. In kind it is functional.
For a further assay, the system named is MDA-MB-231. The experiment in a line: Growth inhibition of human MDA-MBA-231 cells incubated for 72 hrs by MTT assay. In kind it is functional, cell-based. As to conditions: MDA-MB-231, 72 h. (In general: Tetrazolium assays rely on reduction of a dye to a coloured formazan, in cell work by metabolically active cells.)
The next assay concerns A549. Kind of assay: Growth inhibition of human A549 cells incubated for 72 hrs by MTT assay. In kind it is functional, cell-based. Particulars: A549, 72 h.
For a further assay, the system named is HT-29. The experiment in a line: Growth inhibition of human HT-29 cells incubated for 72 hrs by MTT assay. Particulars: HT-29, 72 h. In kind it is functional, cell-based.
Assay [5] concerns Escherichia coli. Kind of assay: Antibacterial activity against Escherichia coli incubated for 18 hrs by agar dilution method. In kind it is functional. (Agar dilution tests growth on a series of plates holding different concentrations.)
Assay [6] concerns Staphylococcus aureus. The experiment in a line: Antibacterial activity against Staphylococcus aureus incubated for 18 hrs by agar dilution method. In kind it is functional.
The next assay has as its system Citrobacter freundii. The experiment in a line: Antibacterial activity against Citrobacter freundii incubated for 18 hrs by agar dilution method. In kind it is functional.
Another assay has as its system Enterobacter cloacae. The experiment in a line: Antibacterial activity against Enterobacter cloacae incubated for 18 hrs by agar dilution method. In kind it is functional.
For another assay, the system named is Hafnia alvei. Kind of assay: Antibacterial activity against Enterobacter hafniae incubated for 18 hrs by agar dilution method. In kind it is functional.
The next assay concerns Klebsiella aerogenes. The experiment in a line: Antibacterial activity against Klebsiella aerogenes incubated for 18 hrs by agar dilution method. In kind it is functional.
The subject of the next assay is Providencia rettgeri. The experiment in a line: Antibacterial activity against Proteus rettgeri incubated for 18 hrs by agar dilution method. In kind it is functional.
In assay [7] the test system is Morganella morganii. The experiment in a line: Antibacterial activity against Proteus morganii incubated for 18 hrs by agar dilution method. In kind it is functional.
Assay [8] concerns Morganella morganii. Kind of assay: Antibacterial activity against Proteus morganii NCTC235 incubated for 18 hrs by agar dilution method. In kind it is functional.
The subject of the next assay is Proteus mirabilis. The experiment in a line: Antibacterial activity against Proteus mirabilis 431 incubated for 18 hrs by agar dilution method. In kind it is functional.
Assay [9] concerns Plasmodium falciparum. Kind of assay: Antiplasmodial activity against Plasmodium falciparum W2. In kind it is functional, organism-based.
The test system of assay [10] is Pseudomonas aeruginosa. The experiment in a line: Antibacterial activity against Pseudomonas aeruginosa ATCC 91433. In kind it is functional.
In assay [11] the test system is Plasmodium falciparum. The experiment in a line: Antiplasmodial activity against […] Plasmodium falciparum 3D7 infected in human erythrocytes incubated for 72 hrs by SYBR green staining based fluorescence assay. As to conditions: 3D7, 72 h. In kind it is functional, organism-based.
Assay [12] deals with Staphylococcus aureus. The experiment in a line: Antibacterial activity against Staphylococcus aureus. In kind it is functional.

In ChEMBL document CHEMBL4699468, “Structural hybridization as a facile approach to new drug candidates” (Bioorg Med Chem Lett, 2020) one finds EC50, MIC and IC50 data, which are given here for 14 molecules.

Values after ≈ are worked out from the molar mass of the structure shown.

The EC50 is the concentration giving half of the maximal effect. Read a low EC50 as greater potency. Regarding `C[C@H]1[C@@H](OCc2cn(-c3ccnc4cc(Cl)ccc34)nn2)O[C@@H]2O[C@@]3(C)CC[C@H]4[C@H](C)CC[C@@H]1[C@@]24OO3`, the concentration giving a half-maximal response (EC50) in the assay on Plasmodium falciparum [1] came to 5.9 nM; with Plasmodium falciparum [2] it was 4.3 nM.
As a reminder, the MIC is the lowest concentration found to suppress growth. Consider `N[C@@H](CCl)C(=O)N[C@@H](CCl)C(=O)OCC1=C(C(=O)O)N2C(=O)[C@@H](NC(=O)Cc3cccs3)[C@H]2SC1`, for which the MIC in the assay with Escherichia coli [3] amounted to 7.05 µg/mL (≈ 12.5 µM).
In the assay with MCF7, `C[C@H]1[C@@H](CCS(=O)(=O)CC[C@H]2O[C@@H]3O[C@]4(C)CC[C@H]5[C@H](C)CC[C@@H]([C@H]2C)[C@@]35OO4)O[C@@H]2O[C@]3(C)CC[C@H]4[C@H](C)CC[C@@H]1[C@@]24OO3` came in with an EC50 of 25 nM.
Regarding `C[C@H]1[C@H](OC(=O)CCC(=O)OCCCNc2ncnc3c(C#N)c(-c4ccc(C(F)(F)F)cc4)cc(-c4ccc(C(F)(F)F)cc4)c23)O[C@@H]2O[C@]3(C)CC[C@H]4[C@H](C)CC[C@@H]1[C@@]24OO3`, the half-maximal effective concentration (EC50) in the assay with Human betaherpesvirus 5 amounted to 100 nM.
`NC[C@H]1O[C@H](O[C@H]2[C@H](OCCCCCCCCCCCCN3CCN(c4cc5c(cc4F)c(=O)c(C(=O)O)cn5C4CC4)CC3)[C@@H](O[C@@H]3O[C@H](CO)[C@@H](O)[C@H](N)[C@H]3O)[C@H](N)C[C@@H]2N)[C@H](N)[C@@H](O)[C@@H]1O` showed an MIC in the assay with Pseudomonas aeruginosa [4] of 4 µg/mL (≈ 4.08 µM).
As for `C[C@H]1[C@H](OC(=O)CCC(=O)NCCNc2ccnc3cc(Cl)ccc23)O[C@@H]2O[C@@]3(C)CC[C@H]4[C@H](C)CC[C@@H]1[C@@]24OO3`, the half-maximal effective concentration (EC50) was determined as 1 nM in the assay on Plasmodium falciparum [1] and 0.78 nM in the assay on Plasmodium falciparum [2].
On to `C[C@H]1[C@@H](OCCNC(=Nc2cc(C(F)(F)F)ccc2Cl)NCCO[C@H]2O[C@@H]3O[C@]4(C)CC[C@H]5[C@H](C)CC[C@@H]([C@H]2C)[C@@]35OO4)O[C@@H]2O[C@]3(C)CC[C@H]4[C@H](C)CC[C@@H]1[C@@]24OO3`, for which the values for the EC50 in the assay on MDA-MB-231, in the assay on A549 and in the assay with HT-29 were 1420 nM, 240 nM and 1400 nM, respectively.
With `O=C(O)C1=C(CSc2cccc[n+]2[O-])CS[C@@H]2[C@H](NC(=O)[C@H](O)c3ccccc3)C(=O)N12`, the minimal inhibitory concentration (MIC) with Escherichia coli [5], in the assay on Staphylococcus aureus [6], against Citrobacter freundii, against Enterobacter cloacae, against Hafnia alvei and in the assay with Klebsiella aerogenes was 0.5 µg/mL (≈ 1.06 µM) throughout. The MIC in the assay on Providencia rettgeri, against Morganella morganii [7], in the assay on Morganella morganii [8] and in the assay with Proteus mirabilis was 0.5 µg/mL (≈ 1.06 µM) each time.
Turning to `CCN(CC)CCCC(C)Nc1ccnc2cc(Cl)ccc12` (stereo not given) [CHLOROQUINE], the EC50 in the assay with Plasmodium falciparum [1] was determined as 165 nM; in the assay on Plasmodium falciparum [2], 303 nM.
Usually IC50 stands for the concentration at which inhibition is half-maximal. A lower IC50 goes with greater potency in that assay. In the case of `COc1cc(NCCCCn2c(-c3ccc(F)cc3)c(-c3ccccc3)c(C(=O)Nc3ccccc3)c2C(C)C)c2ncccc2c1`, in the assay with Plasmodium falciparum [9], the midpoint of inhibition, the IC50, lay at 1410 nM.
In turn, `NCCCCC(N)C(=O)N(CCCCCCCCCCCCO[C@@H]1[C@@H](O[C@@H]2O[C@H](CO)[C@@H](O)[C@H](N)[C@H]2O)[C@H](N)C[C@H](N)[C@H]1O[C@H]1O[C@H](CN)[C@@H](O)[C@H](O)[C@H]1N)Cc1c2ccccc2c(Cl)c2ccccc12` (stereo not given in full) showed an MIC against Pseudomonas aeruginosa [10] of 8 µg/mL (≈ 7.85 µM).
For `C[C@H]1[C@H](OC(=O)CCC(=O)OCCOC(=O)CC(=O)OCCOC(=O)CCC(=O)O[C@@H]2O[C@@H]3O[C@@]4(C)CC[C@H]5[C@H](C)CC[C@@H]([C@H]2C)[C@@]35OO4)O[C@@H]2O[C@@]3(C)CC[C@H]4[C@H](C)CC[C@@H]1[C@@]24OO3`, the concentration giving a half-maximal response (EC50) in the assay on Plasmodium falciparum [11] was 1.4 nM.
With `COc1cc(Cc2cnc(N)nc2N)cc(OC)c1OCCN1CCN(c2cc3c(cc2F)c(=O)c(C(=O)O)cn3C2CC2)CC1`, the MIC in the assay on Escherichia coli [3] is 1 µg/mL (≈ 1.58 µM); against Staphylococcus aureus [12], 0.5 µg/mL (≈ 0.789 µM).
On to `C[C@H]1[C@H](OC(=O)CCC(=O)OCc2cn(-c3ccnc4cc(Cl)ccc34)nn2)O[C@@H]2O[C@@]3(C)CC[C@H]4[C@H](C)CC[C@@H]1[C@@]24OO3`, for which the EC50 in the assay with Plasmodium falciparum [1] is 4.2 nM; in the assay with Plasmodium falciparum [2] it was 1.8 nM.
